Structures can show the parent of a compound that is named as a salt.
How the values were obtained:
cerebellar granule cells [1] = assay: Whole-cell patch clamp of tonic GABA current in cerebellar granule cells; type: cell-based, mouse; conditions: for GABAzine-sensitive current after incubation: 150 μM BAPTA-AM (25 min) or 0.5 μM concanamycin A; for block of GABAzine-sensitive current by anion channel blockers: 100 μM Niflumic acid, DIDS concentration not given
Protocol: Brain slices were prepared as described in Rossi et al., 2003. For slice recording, either approximately P28 days old or more than 8 weeks old mice were used. Animals were deeply anesthetized with halothane. After decapitation, the brain was quickly excised from the skull and submerged in ice-cold cutting solution (in mM): 250 Sucrose, 26 NaHCO3, 10 D(+)-Glucose, 4 MgCl2, 3 myo-inositol, 2.5 KCl, 2 Sodium pyruvate, 1.25 NaH2PO4, 0.5 Ascorbic acid 0.1 CaCl2, 1 Kynurenic acid, pH 7.4. All solutions were gas-treated with 95% O2-5% CO2. After trimming both sides of vermis, several parasagittal slices with […] thicknesses containing cerebellar lobes were cut using a microtome (Leica VT 1000) and transferred to extracellular ACSF solution (in mM); 126 NaCl, 24 NaHCO3, 1 NaH2PO4, 2.5 KCl, 2.5 CaCl2, 2 MgCl2, 10 D(+)-Glucose, pH 7.4. Slices were incubated for one hour at least at room temperature.
For recording, slices were transferred to an electrophysiological recording chamber (RC-26G, Warner Instruments) which is continuously superfused with ASCF (artificial cerebrospinal fluid, sigma) solution (flow rate; 2 ml/min) and controlled by flower controller (Synaptosoft) and a vacuum pump (Charles Austen, model Capex 8C). Slice chamber was mounted on the stage of an upright microscope (Olympus, Japan) and viewed with an ×60 water immersion objective with differential interference contrast and infrared optics. Cellular morphologies were visually identified by Imaging Workbench 6.0 (INDEC Systems, Inc), camera controller (Hamamatsu, C4742-95), and light microscope controller (Olympus, TH4-200). Fluorescence images were viewed with mercury lamp (Olympus, U-RFL-T). Whole cell voltage-clamp recording was made from granular cell somata or Bergmann glial cells mostly located in 2-5 cerebellar lobules
Pipette resistance for granule cells was typically 10-12 MΩ and pipette was filled with an internal solution containing (in mM) 135 CsCl, 4 NaCl, 0.5 CaCl2, 10 HEPES, 5 EGTA, 2 Mg-ATP, 0.5 Na2-GTP, 10 QX-314, pH adjusted to 7.2 with CsOH (278-285 mOsmol) was used (Rossi, et al., 2003).
B6 wildtype, GFAP-GFP and hGFAP-CreERT2 trangenic mice (SPF room, Center for Neural Science, KIST, Seoul, Korea) were anaesthetized by intraperitoneal injection of 2% avertin (20 μl/g, sigma) and placed in a stereotaxic frame (David Kopf instrument). pSicoR-b1shRNA-mCherry or scrambled virus (Macrogen) was stereo-injected into cerebellar cortex at a rate of 0.2 μl/min (total 2 μl) using syringe pump (Harvard apparatus) and 25 μl syringe (Hamilton company). The coordination of injection site was 1.7 mm from the lambda and the depth was 1.5-1.7 mm from the skull.
The glia-specific CreERT activation was initiated by intraperitoneal injection of tamoxifen for 5 days prior to lentivirus injection (FIG. 4a,b). […] Tamoxifen or sunflower oil were injected intraperitoncally once a day for 5 days before lentivirus injection.

hBest1 = target: T1, hBest1 (Homo sapiens, UniProt O76090); conditions: cited from earlier work
T1 sequence (O76090 1-585): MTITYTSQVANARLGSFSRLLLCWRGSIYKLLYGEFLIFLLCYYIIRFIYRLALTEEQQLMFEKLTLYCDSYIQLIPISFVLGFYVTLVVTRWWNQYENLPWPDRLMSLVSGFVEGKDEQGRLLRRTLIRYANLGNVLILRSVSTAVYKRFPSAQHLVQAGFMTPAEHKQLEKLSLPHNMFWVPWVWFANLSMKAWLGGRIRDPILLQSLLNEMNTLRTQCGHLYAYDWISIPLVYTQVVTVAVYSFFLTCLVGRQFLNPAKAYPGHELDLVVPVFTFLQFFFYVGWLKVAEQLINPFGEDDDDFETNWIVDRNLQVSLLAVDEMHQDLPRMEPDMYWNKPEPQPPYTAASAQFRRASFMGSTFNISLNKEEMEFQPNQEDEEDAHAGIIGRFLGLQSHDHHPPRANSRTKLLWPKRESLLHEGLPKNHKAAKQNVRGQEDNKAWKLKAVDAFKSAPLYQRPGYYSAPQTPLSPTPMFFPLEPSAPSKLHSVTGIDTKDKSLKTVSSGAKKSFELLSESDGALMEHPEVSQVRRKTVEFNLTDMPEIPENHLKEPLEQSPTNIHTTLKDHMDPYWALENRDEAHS

[2] = tested on: cell line derived from type-2 astrocytes; conditions: cited from earlier work
cerebellar granule cells [3] = assay: Clomeleon imaging of [Cl−]i in cerebellar granule cells (tonic GABA release); type: cell-based, mouse; conditions: bath application of 10 μM
Protocol: B6 wildtype, GFAP-GFP and hGFAP-CreERT2 trangenic mice (SPF room, Center for Neural Science, KIST, Seoul, Korea) were anaesthetized by intraperitoneal injection of 2% avertin (20 μl/g, sigma) and placed in a stereotaxic frame (David Kopf instrument). pSicoR-b1shRNA-mCherry or scrambled virus (Macrogen) was stereo-injected into cerebellar cortex at a rate of 0.2 μl/min (total 2 μl) using syringe pump (Harvard apparatus) and 25 μl syringe (Hamilton company). The coordination of injection site was 1.7 mm from the lambda and the depth was 1.5-1.7 mm from the skull. […]
Clomeleon, based on fluorescence resonance energy transfer (FRET), is a genetically-encoded fluorescent indicator for Cl^− in which chloride-sensitive yellow fluroscent protein fused with chloride-insensitive cyan fluorescent protein via a flexible peptide linker (Kuner and Augustine, 2000). […]
For imaging, two ROIs (Regions of Interest) covering the granule cell layer and the molecular layer were drawn. […] Fluorescence excitation was produced by two consecutive 200 to 500 ms long light pulses at 0.5 Hz and fluorescence emission was alternately collected at each wavelength with a back-illuminated, cooled CCD camera with the on-chip multiplication gain control (Cascade 512B, Photometrics). […]

Best1 channel = target: T2, Best1 channel (Mus musculus, UniProt O88870); type: cell-based; conditions: NPPB and NFA at 100 μM; inward current in GABAc sensor cell
T2 construct: mBest1 full-length fragment from pGEM-T easy plasmid (6.65 kb, Promega) was subcloned into pcDNA 3.1; expressed in transfected cells; host or cells: HEK293T (ATCC)
T2 sequence (O88870 1-551 R255K): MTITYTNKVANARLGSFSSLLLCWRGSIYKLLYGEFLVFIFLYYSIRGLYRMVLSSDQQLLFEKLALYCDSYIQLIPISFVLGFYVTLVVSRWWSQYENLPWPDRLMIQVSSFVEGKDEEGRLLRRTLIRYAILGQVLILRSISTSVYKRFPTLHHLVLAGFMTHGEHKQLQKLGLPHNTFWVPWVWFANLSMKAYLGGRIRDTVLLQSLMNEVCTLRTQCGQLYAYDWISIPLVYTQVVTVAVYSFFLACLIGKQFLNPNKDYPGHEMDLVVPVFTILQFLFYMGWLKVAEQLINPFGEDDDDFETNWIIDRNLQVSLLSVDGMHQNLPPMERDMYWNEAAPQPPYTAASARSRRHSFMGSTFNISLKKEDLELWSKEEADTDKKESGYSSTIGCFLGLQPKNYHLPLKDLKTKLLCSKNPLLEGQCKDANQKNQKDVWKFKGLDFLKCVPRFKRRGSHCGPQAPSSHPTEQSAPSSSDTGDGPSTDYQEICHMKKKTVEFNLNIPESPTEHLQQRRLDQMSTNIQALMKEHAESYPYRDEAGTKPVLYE
Excerpt: For Best1 channel to mediate release of GABA, it has to permeate GABA upon channel opening. To test for GABA permeability of Best1 channel, a two-cell sniffer patch technique was developed to directly measure GABA release via Best1 channel in sensor HEK293T cells that express GABAc, and via other channels that are expressed in source HEK293T cells (FIG. 1b).
pIRES-Best1-dsRED plasmid (obtained by cloning Best1 using pIRES-dsRED (Invitrogen)) and GABAc with GFP (obtained by cloning GABAc using pcDNA3.1 (Invitrogen)) were transfected into HEK 293T cells (ATCC) using Effectene transfection reagent (Qiagen). […]
GABA release was induced by a break-though of membrane patch that goes into a whole-cell configuration in the source cell and such the released GABA was monitored and detected by a neighboring sensor cell. Full activation of GABA current was obtained by bath application of 100 μM GABA and the percentage of full activation was calculated (FIGS. 1c and 1d).
Permeated GABA is detected in sensor as an inward current (bottom traces). […] The GABA permeability of said mutant was determined by using cells obtained by transfecting said mutant into HEK293t cell (ATCC). […] The GABA permeability of said AN01 was determined by using cells obtained by transfecting said mutant into HEK293t cell (ACTT).

GABAc receptors = assay: Patch clamp of GABAc expressing HEK293 cells challenged with 100 μM GABA; type: cell-based; conditions: 100 μM GABA in absence or presence of 100 μM NFA and 100 μM NPPB
Protocol: FIGS. 7a and 7b show the results when GABAc expressing HEK293 cells were patch clamped and challenged with 100 μM GABA in the absence and presence of 100 μM NFA and 100 μM NPPB; and
In FIGS. 7a and 7b, GABAc expressing HEK293 cells were patch clamped and challenged with 100 μM GABA in the absence or presence of 100 μM NFA and 100 μM NPPB.

**Q.** Which “GABAzine-sensitive current after incubation” value (cerebellar granule cells [1]) does the source give for `CC(=O)OCOC(=O)CN(CC(=O)OCOC(C)=O)c1ccccc1OCCOc1ccccc1N(CC(=O)OCOC(C)=O)CC(=O)OCOC(C)=O` [BAPTA-AM, 1,2-Bis(2-aminophenoxy)ethane-N,N,N′,N′-tetraacetic acid tetrakis(acetoxymethyl ester)] here?
**A.** significantly reduced

**Q.** Which “block of GABAzine-sensitive current by anion channel blockers” value (cerebellar granule cells [1]) does the source give for `O=S(=O)(O)c1cc(N=C=S)ccc1C=Cc1ccc(N=C=S)cc1S(=O)(=O)O` [DIDS, 4,4′-diisothiocyanatostilbene-2,2′-disulfonic acid] here?
**A.** blocked the GABAzine-sensitive current significantly

**Q.** And the “block of hBest1 Cl− channel” value (hBest1)?
**A.** readily blocked

**Q.** And the “sensitivity of P2X7-induced [3H]-GABA release to inhibitors” value [2]?
**A.** sensitive

**Q.** Which “[Cl−]i in granular cell bodies and parallel fibers” value (cerebellar granule cells [3]) does the source give for `COc1ccc(-c2ccc(=N)n(CCCC(=O)O)n2)cc1` [GABAzine, SR95531 hydrobromide] here?
**A.** markedly decreased

**Q.** What about the GABAzine-sensitive current (cerebellar granule cells [1]; naïve mice, holding −60 mV) of the same molecule?
**A.** 35.68±4.05 pA

**Q.** Which results are given for `O=C(O)c1cccnc1Nc1cccc(C(F)(F)F)c1` [NFA, Niflumic acid]?
**A.** GABA release via Best1 (Best1 channel): completely abolished; GABA response of GABAc expressing HEK293 cells (GABAc receptors): do not have significant impact; block of GABAzine-sensitive current by anion channel blockers (cerebellar granule cells [1]): blocked the GABAzine-sensitive current significantly; block of hBest1 Cl− channel (hBest1): readily blocked

**Q.** With `CC(=O)Nc1ccc(C=Cc2ccc(N=C=S)cc2S(=O)(=O)O)c(S(=O)(=O)O)c1` [SITS, 4-acetamido-4′-isothiocyanostilbene-2,2′-disulphonic acid] as the molecule, how does the “sensitivity of P2X7-induced [3H]-GABA release to inhibitors” value [2] read?
**A.** sensitive

**Q.** Which results are given for `CC/C(=C(\c1ccccc1)c1ccc(OCCN(C)C)cc1)c1ccccc1` [Tamoxifen]?
**A.** NPPB-sensitive current (cerebellar granule cells [1]; hGFAP-CreERT2 mice with Tamoxifen and Best1-shRNA lentivirus, naïve 18.95±2.47 pA): 19.27±2.2 pA; GABAzine-sensitive current (cerebellar granule cells [1]; hGFAP-CreERT2 mice, tamoxifen i.p. 5 days, then Best1-shRNA lentivirus (glia-specific rescue)): 31.31±2.19 pA

**Q.** With `C/C=C/[C@H]1O[C@@](O)([C@@H](C)[C@H](O)[C@H](C)[C@H]2OC(=O)/C(OC)=C/C(C)=C/[C@@H](C)[C@@H](O)[C@@H](CC)[C@@H](O)[C@H](C)C/C(C)=C/C=C/[C@@H]2OC)C[C@@H](O[C@H]2C[C@@H](O)[C@H](OC(N)=O)[C@@H](C)O2)[C@@H]1C` [concanamycin A] as the molecule, how does the “GABAzine-sensitive current after incubation” value (cerebellar granule cells [1]) read?
**A.** did not have such affect

Reference: patent publication US9095535B2, “GABA release-regulating agent in cerebellum” (KOREA INSTITUTE OF SCIENCE AND TECHNOLOGY, priority 2009, dated 2015)
